# Key:
# Type in all cases: cell-based
# [1] = tested on: Chlamydia trachomatis serovar L2 (strain 434/Bu); experiment: Infectious progeny inhibition assay, C. trachomatis L2; details: Chlamydia trachomatis, HeLa, generation of infectious progeny EBs in HeLa cells, MOI 0.2, 36 hpi, 1 to 32 μM; read-out: IC50 (μM) Mean (95% confidence interval) Ct L2
# Experimental: (§1) Chlamydia trachomatis serovars D (strain UW-3/CX) and L2 (strain 434/Bu) were purchased from ATCC. HeLa cells purchased from ATCC were routinely cultured in DMEM supplemented with 10% heat-inactivated FBS (Sigma-Aldrich) and 10 μg/mL gentamicin at 37°C in a humidified atmosphere of 5% and were used for chlamydial propagation and cell culture experiments. EBs were purified by Renografin density gradient and stored in sucrose-phosphate-glutamate (SPG) buffer at -80°C [20]. A mouse polyclonal anti-MoPn (C. muridarum strain Nigg II) antibody, which was produced in our laboratory and cross-reacting with C. trachomatis D and L2, was used as a primary antibody for both stains detection.
# (§2) Cell monolayers seeded onto coverslips in a 24-well plate were infected with C. trachomatis at a multiplicity of infection (MOI) of 0.2 inclusion-forming units (IFU) per cell. Unless noted, individual compound was added into culture medium at indicated concentrations simultaneously at the time of inoculation. 0.5% DMSO was used as negative control and 11.25 μM tetracycline (Sigma-Aldrich) as positive control. For C. trachomatis D, an additional centrifugation (900 × g at room temperature for 1 h) was applied to facilitate the infection. At 36 hours postinfection (hpi), infected cells were fixed by precooled methanol and then subjected to sequential staining processed with a primary antibody and a FITC-conjugated secondary antibody. Evans blue was used as cytoplasm counterstain. Images were shot by an Olympus IX51 fluorescence microscope.
# (§3) Cells monolayers seeded in 48-well plate were infected and treated with chemicals as above. After incubation for 36 hours, infected cells were washed twice, scraped off, and lysed by sonication to release the infectious progeny EBs. Then the lysates were used to reinfect fresh cell monolayers grown in 96-well plate following 1 : 10 serial dilution. The inclusion counts were obtained by immunofluorescence staining as above to calculate the number of infectious progeny EBs in each sample. Percent inhibition was calculated based on EB counts in compound-treated samples relative to DMSO-treated negative control.
# (§4) Data from the three independent experiments were presented as mean ± standard deviations (SD) and were subjected to pairwise Student's t-tests. p < 0.05 and p < 0.01 are considered statistically significant and statistically highly significant, respectively. The IC50 values, defined as the concentration of compound at which the generation of infectious progeny EBs was reduced by 50% relative to negative control, were calculated by nonlinear regression from percent inhibition data using the GraphPad Prism 5 software, and presented as mean (95% confidence interval).
# [2] = tested on: Chlamydia trachomatis serovar D (strain UW-3/CX); experiment: Infectious progeny inhibition assay, C. trachomatis D; details: Chlamydia trachomatis, HeLa, generation of infectious progeny EBs in HeLa cells, MOI 0.2, 36 hpi, 1 to 32 μM; read-out: IC50 (μM) Mean (95% confidence interval) Ct D
# Experimental: as §1, §2, §3, §4
# WST-1 cell viability = details: human, uninfected HeLa cells, WST-1, relative to DMSO control as 100%
# Experimental: Uninfected HeLa cells were cultured with 32 μM (the highest concentration used in antichlamydial analysis) of individual compound or 0.5% DMSO for 48 h. After 10 μL of WST-1 reagent was added, cells were incubated for an additional 1 h, and absorbance at 450 nm was recorded. The viability of compound-treated cells was calculated by the absorbance relative to that of DMSO control setting as 100% [22].
Compound,IC50 [1],IC50 [2],"viability at 48 h, 32 µM (WST-1 cell viability)"
Brc1ccccc1C1c2ccccc3cccc2N2C(c4ccccc4)CC3C2ON1c1ccccc1 (stereo not drawn) [Compound 8],25.4 µM,28.6 µM,102%
Fc1ccc(N2C(C3CCCCC3)CC3C(c4ccccc4Br)N(c4ccccc4)OC32)cc1 (stereo not drawn) [Compound 9],> 32 µM,19.6 µM,96.5%
COc1ccc(N2C(c3ccccc3)CC3C(c4ccccc4Br)N(c4ccccc4)OC32)cc1 (stereo not drawn) [Compound 4],11.2 µM,> 32 µM,97.5%
COc1ccc(N2C(c3ccccc3)CC3C(c4ccc(Br)cc4)N(c4ccccc4)OC32)cc1 (stereo not drawn) [Compound 6],9.08 µM,16.9 µM,~90%
Fc1ccc(N2C(c3cccs3)CC3C(c4ccccc4Br)N(c4ccccc4)OC32)cc1 (stereo not drawn) [Compound 10],17.4 µM,15.4 µM,~90%
Brc1ccccc1C1C2CC(c3ccccc3)N(c3ccccc3)C2ON1c1ccccc1 (stereo not drawn) [Compound 7],19.1 µM,> 32 µM,~90%
COc1ccc(N2C(c3ccccc3)CC3C(c4cccc(Br)c4)N(c4ccccc4)OC32)cc1 (stereo not drawn) [Compound 5],15.5 µM,> 32 µM,95.2%
Brc1ccc(C2C3CC(c4ccccc4)N(c4ccccc4)C3ON2c2ccccc2)cc1 (stereo not drawn) [Compound 3],8.67 µM,20.9 µM,99.9%

# Further lines, with some results ahead:
IC50 [1],IC50 [2],Compound,"viability at 48 h, 32 µM (WST-1 cell viability)"
> 32 µM,27.6 µM,Brc1ccccc1C1C2CC(c3ccccc3Br)N(c3ccccc3)C2ON1c1ccccc1 (stereo not drawn) [Compound 17],114%
> 32 µM,16.3 µM,Cc1ccc(N2C(c3ccccc3)CC3C(c4ccccc4Br)N(c4ccccc4)OC32)cc1 (stereo not drawn) [Compound 13],95.7%
> 32 µM,23.5 µM,Cc1ccc(C2CC3C(c4ccccc4Br)N(c4ccccc4)OC3N2c2ccccc2)cc1 (stereo not drawn) [Compound 11],99.7%
9.77 µM,12.2 µM,O=[N+]([O-])c1ccc(C2CC3C(c4ccccc4Cl)N(c4ccccc4)OC3N2c2ccccc2)cc1 (stereo not drawn) [Compound 15],104%
> 32 µM,21 µM,Fc1ccc(N2C(c3cccc4ccccc34)CC3C(c4ccccc4Br)N(c4ccccc4)OC32)cc1 (stereo not drawn) [Compound 18],106%
13.5 µM,5.93 µM,Cc1ccc(C2CC3C(c4ccccc4)N(c4ccccc4)OC3N2c2ccc(C)cc2)cc1 (stereo not drawn) [Compound 16],96.5%
17.5 µM,12.5 µM,O=[N+]([O-])c1ccc(C2CC3C(c4ccccc4Br)N(c4ccccc4)OC3N2c2ccccc2)cc1 (stereo not drawn) [Compound 12],104%
16.8 µM,16.3 µM,Brc1ccccc1C1C2CC(/C=C/c3ccccc3)N(c3ccccc3)C2ON1c1ccccc1 (stereo not drawn) [Compound 14],98%

# Reference: paper PMC7984888, “Inhibitory Activity of Pyrroloisoxazolidine Derivatives against Chlamydia trachomatis” (BioMed Research International, 2021)
